Reference: PMC7284374 (Pharmaceutics, 2020)
Structures can show the parent of a compound that is named as a salt. Where two headings read alike, the source gives them in different places.

Experiments:
[1] = rats, intravenous administration of both drugs together
[2] = rats, oral administration of both drugs together
in vivo [3] = settings: rat
[4] = 10 µM metformin
Protocol: (§1) Hepatic and intestinal microsomes were prepared by the previously reported method as followings [17, 37, 38]: freshly excised livers were cut in pieces, washed extensively with ice-cold solution (KCl 0.15 M) to remove remaining blood and were homogenized with Tris-HCl buffer (pH 7.5) containing 0.15 M KCl + 50 mM Tris, 1 mM EDTA in a Potter-Elvehjem glass homogenizer for 30 s. The homogenate was centrifuged for 10 min at 10,000× g and 4 °C and then followed by ultracentrifugation of the remaining supernatant for 1 h at 100,000× g and 4 °C. Microsomal pellets were then re-suspended in the same buffer with a hand homogenizer and re-centrifuged for 1 h at 100,000× g and 4 °C. The supernatant was discarded, and the microsomal pellets were carefully overlaid with 0.15 mol KCl buffer and stored at −80 °C. Intestinal microsomes were prepared using freshly excised proximal and middle sections of the small intestine. […]
(§2) The unweighted kinetic data from the hepatic and intestinal microsomes were fitted using a single-site Michaelis−Menten equation; V = Vmax × [S]/(Km + [S]), in which [S] was the substrate concentration. The intrinsic clearance (CLint) was calculated by dividing the Vmax by the Km.

in vivo [5] = settings: rat, plasma, po, 30 mg/kg
in vivo [6] = settings: rat, plasma, iv, 30 mg/kg
[7] = 10 µM metformin; remark: listed apart in the source
Protocol: as §1, §2

[8] = cited from earlier work
[9] = Oral pharmacokinetics of verapamil and norverapamil with and without metformin in rats; settings: for CL renal: plasma and urine, CLR; for half-life: Terminal half-life; for GI24 h: gastrointestinal tract at 24 h; for Ae0–24 h: urine up to 24 h
[10] = Intravenous pharmacokinetics of verapamil and norverapamil with and without metformin in rats; settings: for CL renal: plasma and urine, CLR; for half-life: Terminal half-life; for GI24 h: gastrointestinal tract at 24 h; for Ae0–24 h: urine up to 24 h
[11] = rat, plasma, po, 20 mg/kg, rats, oral verapamil 20 mg/kg, with metformin 30 mg/kg
[12] = rat, plasma, po, 20 mg/kg, rats, oral verapamil 20 mg/kg, without metformin
[13] = rats, oral verapamil 20 mg/kg, with metformin 30 mg/kg
[14] = rats, oral verapamil 20 mg/kg, without metformin
[15] = rat, plasma, iv, 20 mg/kg, rats, iv verapamil 20 mg/kg, with metformin 30 mg/kg
[16] = rat, plasma, iv, 20 mg/kg, rats, iv verapamil 20 mg/kg, without metformin
[17] = rats, iv verapamil 20 mg/kg, with metformin 30 mg/kg
[18] = rats, iv verapamil 20 mg/kg, without metformin

For COc1ccc(CCN(C)CCCC(C#N)(c2ccc(OC)c(OC)c2)C(C)C)cc1OC (stereo not drawn) [verapamil, Verapamil hydrochloride], the “effect of verapamil on the metformin concentration in the liver” value [1] was “did not cause any change” and the “effect of verapamil on the metformin concentration in the liver” value [2] was “did not cause any change”.
In the case of CN(C)C(=N)N=C(N)N [metformin, Metformin hydrochloride], the concentration at 0.5 h (in vivo [3]) is reported as 2910 ± 894 ng/mL, the “effect of metformin on verapamil metabolism” value [4] is reported as “did not affect verapamil metabolism” and the AUC (in vivo [5]) is reported as 7870 ng·h/mL. The Cmax (in vivo [5]) was 2000 ± 328 ng/mL, the AUC (in vivo [6]) was 26500 ng·h/mL and the MRT (in vivo [6]) was 0.357 h. For the same compound, the Vd (in vivo [6]) was 0.349 ± 0.128 L/kg, the “effect of metformin on verapamil metabolism” value [7] was “did not affect verapamil metabolism” and the “renal excretion of metformin (OCT2-mediated)” value [8] was ~ 70 % of the metformin dose.
For COc1ccc(CCNCCCC(C#N)(c2ccc(OC)c(OC)c2)C(C)C)cc1OC (stereo not drawn) [norverapamil], the CL renal ([9]; rat, po, 20 mg/kg, rats, oral verapamil 20 mg/kg, with metformin 30 mg/kg) was 0.562 ± 0.445 mL/min/kg, the CL renal ([9]; rat, po, 20 mg/kg, rats, oral verapamil 20 mg/kg, without metformin) was 0.336 ± 0.107 mL/min/kg and the Tmax ([9]; rat, plasma, po, 20 mg/kg) was 0.75 h. For the same compound, the AUC [9, 11] was 898 ng·h/mL, the AUC [9, 12] was 1140 ng·h/mL and the Cmax [9, 11] was 273 ± 123 ng/mL. For the same compound, the Cmax [9, 12] was 267 ± 141 ng/mL, the half-life [9, 11] was 1.95 ± 0.742 h and the half-life [9, 12] was 2.8 ± 1.22 h. The GI24 h [9, 13] was 0.0782 ± 0.0514 % of dose, the Tmax ([9]; rats, oral verapamil 20 mg/kg, with metformin 30 mg/kg, median (range)) was 45 (15–105) min and the “Ae0–24 h” value [9, 13] was 0.113 ± 0.0522 % of dose. The GI24 h [9, 14] was 0.0870 ± 0.0665 % of dose, the “Ae0–24 h” value [9, 14] was 0.104 ± 0.0567 % of dose and the CL renal ([10]; rat, iv, 20 mg/kg, rats, iv verapamil 20 mg/kg, with metformin 30 mg/kg) was 0.0626 ± 0.0535 mL/min/kg. The CL renal ([10]; rat, iv, 20 mg/kg, rats, iv verapamil 20 mg/kg, without metformin) was 0.109 ± 0.102 mL/min/kg, the Tmax ([10]; rat, plasma, iv, 20 mg/kg) was 1 h and the AUC [10, 15] was 3320 ng·h/mL. It also gave an AUC [10, 16] of 3130 ng·h/mL, a Cmax [10, 15] of 1090 ± 308 ng/mL and a Cmax [10, 16] of 1240 ± 386 ng/mL. For the same compound, the half-life [10, 15] was 1.05 ± 0.253 h, the half-life [10, 16] was 0.847 ± 0.17 h and the GI24 h [10, 17] was 0.126 ± 0.0927 % of dose. For the same compound, the Tmax ([10]; rats, iv verapamil 20 mg/kg, with metformin 30 mg/kg, median (range)) was 60 (30−90) min, the “Ae0–24 h” value [10, 17] was 0.0585 ± 0.0453 % of dose and the GI24 h [10, 18] was 0.146 ± 0.0841 % of dose. The “Ae0–24 h” value [10, 18] was 0.0872 ± 0.0691 % of dose.
